Several values for one entry are separate records, joined by “and”; a condition that tells them apart may be missing. Equal values may be shown once. Inconclusive results and toxic doses are left out. How the source made its calls: active means survival T/C of 150% or more; inactive means T/C below 125% in these data.
Test system: CD2F1 mice, L1210 leukemia ip, survival T/C
Experiment: NCI In Vivo Anticancer Drug Screen. Data for tumor model L1210 Leukemia (intraperitoneal) in CD2F1 (CDF1) mice
Conditions: endpoint: mean survival time, higher = longer survival
Summary of the method: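 Implant tumor; dose compound or vehicle; measure endpoint in both groups; report treated divided by control.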

[1] = dose: 100.0 mg/kg/injection, schedule: Q01DX001 (ip), vehicle: other
[2] = dose: 200.0 mg/kg/injection, schedule: Q01DX001 (ip), vehicle: other
[3] = dose: 25.0 mg/kg/injection, schedule: Q04DX002 (ip), vehicle: saline with Tween-80
[4] = dose: 50.0 mg/kg/injection, schedule: Q04DX002 (ip), vehicle: saline with Tween-80
[5] = dose: 100.0 mg/kg/injection, schedule: Q04DX002 (ip), vehicle: saline with Tween-80
[6] = dose: 100.0 mg/kg/injection, schedule: Q01DX009 (ip), vehicle: saline with Tween-80
[7] = dose: 100.0 mg/kg/injection, schedule: Q04DX003 (ip), vehicle: saline with Tween-80
[8] = dose: 200.0 mg/kg/injection, schedule: Q01DX009 (ip), vehicle: saline with Tween-80
[9] = dose: 200.0 mg/kg/injection, schedule: Q04DX003 (ip), vehicle: saline with Tween-80
[10] = dose: 400.0 mg/kg/injection, schedule: Q01DX009 (ip), vehicle: saline with Tween-80
[11] = dose: 400.0 mg/kg/injection, schedule: Q04DX003 (ip), vehicle: saline with Tween-80
[12] = dose: 50.0 mg/kg/injection, schedule: Q01DX009 (ip), vehicle: saline with Tween-80
[13] = dose: 100.0 mg/kg/injection, schedule: Q04DX003 (ip), vehicle: other
[14] = dose: 200.0 mg/kg/injection, schedule: Q04DX003 (ip), vehicle: other
[15] = dose: 400.0 mg/kg/injection, schedule: Q04DX003 (ip), vehicle: other

Measured: T/C

N#CSC/C(Br)=C/Br
inactive: dose: 6.25 mg/kg/injection, schedule: Q04DX003 (ip), vehicle: saline with Tween-80 97 % of control | dose: 12.5 mg/kg/injection, schedule: Q04DX003 (ip), vehicle: saline with Tween-80 103 % of control | dose: 25.0 mg/kg/injection, schedule: Q04DX003 (ip), vehicle: saline with Tween-80 92 % of control

CCCCCCCCCCC[n+]1ccc(C#N)cc1
inactive: dose: 9.38 mg/kg/injection, schedule: Q01DX001 (ip), vehicle: saline 105 % of control | dose: 18.75 mg/kg/injection, schedule: Q01DX001 (ip), vehicle: saline 98 % of control

CCOC/C(O)=C(\C#N)c1cccc(Cl)c1
inactive: dose: 25.0 mg/kg/injection, schedule: Q01DX001 (ip), vehicle: other 105 % of control | dose: 50.0 mg/kg/injection, schedule: Q01DX001 (ip), vehicle: other 102 % of control | [1] 102 % of control | [2] 101 % of control

COc1ccc(O)c(CC(C)C)c1
inactive: dose: 100.0 mg/kg/injection, schedule: Q01DX009 (ip), vehicle: acetone 100 % of control | dose: 200.0 mg/kg/injection, schedule: Q01DX009 (ip), vehicle: acetone 104 % of control | dose: 400.0 mg/kg/injection, schedule: Q01DX009 (ip), vehicle: acetone 96 % of control

O=C(N/N=C/c1ccc(O)cc1)c1ccccc1
inactive: [1] 100 % of control | dose: 100.0 mg/kg/injection, schedule: Q01DX009 (ip), vehicle: Klucel (hydroxypropylcellulose) (HPC) 100 % of control | [2] 94 % of control | dose: 200.0 mg/kg/injection, schedule: Q01DX009 (ip), vehicle: Klucel (hydroxypropylcellulose) (HPC) 96 % of control | dose: 400.0 mg/kg/injection, schedule: Q01DX001 (ip), vehicle: other 103 % of control | dose: 400.0 mg/kg/injection, schedule: Q01DX009 (ip), vehicle: Klucel (hydroxypropylcellulose) (HPC) 94 % of control

CCNC1=C(C)C(=O)c2c(c(COC(N)=O)c3n2CC(NC(C)=O)C3O)C1=O (centres undefined)
inactive: dose: 33.0 mg/kg/injection, schedule: Q01DX001 (ip), vehicle: carboxymethylcellulose (CMC) 98 % of control | dose: 50.0 mg/kg/injection, schedule: Q01DX001 (ip), vehicle: carboxymethylcellulose (CMC) 98 % of control | dose: 75.0 mg/kg/injection, schedule: Q01DX001 (ip), vehicle: carboxymethylcellulose (CMC) 102 % of control

CN=C1C=C/C(=N/N=c2/ccn(O)cc2C)C=C1C
inactive: [3] 106 % of control | [4] 95 % of control | [5] 111 % of control

S=C=Nc1ccc(Cl)c2ccccc12
inactive: dose: 12.5 mg/kg/injection, schedule: Q04DX002 (ip), vehicle: saline with Tween-80 90 % of control | [3] 98 % of control | [4] 102 % of control

CC(=O)C=C(C)[O][Tl]
inactive: dose: 75.0 mg/kg/injection, schedule: Q01DX001 (ip), vehicle: saline 102 % of control

CCCCCCCCCCC(CCCCCCCCCC)=NN=C(CCCCCCCCCC)CCCCCCCCCC
inactive: dose: 100.0 mg/kg/injection, schedule: Q01DX001 (ip), vehicle: Klucel (hydroxypropylcellulose) (HPC) 90 % of control | dose: 200.0 mg/kg/injection, schedule: Q01DX001 (ip), vehicle: Klucel (hydroxypropylcellulose) (HPC) 86 % of control | dose: 400.0 mg/kg/injection, schedule: Q01DX001 (ip), vehicle: Klucel (hydroxypropylcellulose) (HPC) 90 % of control

O=Nc1ccc(NO)c2ccccc12
inactive: dose: 50.0 mg/kg/injection, schedule: Q01DX009 (ip), vehicle: saline 98 % of control | dose: 100.0 mg/kg/injection, schedule: Q01DX009 (ip), vehicle: saline 102 % of control | dose: 200.0 mg/kg/injection, schedule: Q01DX009 (ip), vehicle: saline 102 % of control

CC(C)C1CCC(C)C23CCC(=O)C2C13 (centres undefined)
inactive: dose: 100.0 mg/kg/injection, schedule: Q01DX001 (ip), vehicle: acetone 100 % of control | dose: 200.0 mg/kg/injection, schedule: Q01DX001 (ip), vehicle: acetone 95 % of control | dose: 400.0 mg/kg/injection, schedule: Q01DX001 (ip), vehicle: acetone 110 % of control

COc1ccc2c(c1)N(CC(C)C[N+](C)(C)CCCCCCCCCC[N+](C)(C)CC(C)CN1c3ccccc3Sc3ccc(OC)cc31)c1ccccc1S2 (centres undefined)
inactive: dose: 6.25 mg/kg/injection, schedule: Q01DX009 (ip), vehicle: saline 100 % of control | dose: 12.5 mg/kg/injection, schedule: Q01DX009 (ip), vehicle: saline 92 % of control | dose: 25.0 mg/kg/injection, schedule: Q01DX009 (ip), vehicle: saline 106 % of control

Nc1ccc2c(S(=O)(=O)O)ccc(O)c2c1
inactive: [6] 100 % of control | [7] 96 % of control | [8] 93 % of control | [9] 96 % of control | [10] 90 % of control | [11] 98 % of control

CCOC(=O)/C=C(\C)CO
inactive: [5] 88 % of control | dose: 200.0 mg/kg/injection, schedule: Q04DX002 (ip), vehicle: saline with Tween-80 103 % of control | dose: 400.0 mg/kg/injection, schedule: Q04DX002 (ip), vehicle: saline with Tween-80 103 % of control

CCCCCCCC/C=C/CCCCCCCCCCCCBr
inactive: [6] 104 % of control | dose: 100.0 mg/kg/injection, schedule: Q04DX003 (ip), vehicle: saline 98 % of control | [8] 93 % of control | dose: 200.0 mg/kg/injection, schedule: Q04DX003 (ip), vehicle: saline 97 % of control | [10] 103 % of control | dose: 400.0 mg/kg/injection, schedule: Q04DX003 (ip), vehicle: saline 92 % of control

O=C(O)C1=CCC=CC1
inactive: [6] 104 % of control | [8] 97 % of control | [10] 106 % of control

CC(C)CN1CCCC(=O)C(O)CCC1 (centres undefined)
inactive: dose: 25.0 mg/kg/injection, schedule: Q01DX009 (ip), vehicle: acetone 98 % of control | dose: 50.0 mg/kg/injection, schedule: Q01DX009 (ip), vehicle: acetone 93 % of control

CCNC(=S)NNc1ccccc1
inactive: [12] 103 % of control | [6] 100 % of control | [8] 88 % of control

O=C1CCCN1.O=C1CCCN1.[Br][Co][Br]
inactive: dose: 37.5 mg/kg/injection, schedule: Q01DX009 (ip), vehicle: saline 102 % of control | dose: 75.0 mg/kg/injection, schedule: Q01DX009 (ip), vehicle: saline 107 % of control

CCOn1nc(-c2ccccc2)oc1=O
inactive: [13] 96 % of control | [14] 93 % of control | [15] 116 % of control

c1ccc(Oc2ccc(-c3ccc(Oc4ccccc4)cc3)cc2)cc1
inactive: [9] 95 % of control | [11] 91 % of control

Cc1ccc2c(c1)CCCN2C(=O)c1ccccc1
inactive: [13] 89 % of control | [14] 92 % of control | [15] 94 % of control

S=c1ssc(-c2ccccc2)c1-c1ccccc1
inactive: [6] 97 % of control | [7] 87 % of control | [8] 100 % of control | [9] 92 % of control | [10] 106 % of control | [11] 93 % of control

C/C=C\c1ccc(OCCOC(=O)Nc2c(Cl)cccc2Cl)c(OC)c1
inactive: dose: 12.5 mg/kg/injection, schedule: Q01DX009 (ip), vehicle: saline with Tween-80 103 % of control | dose: 25.0 mg/kg/injection, schedule: Q01DX009 (ip), vehicle: saline with Tween-80 97 % of control | [12] 94 % of control and 99 % of control | [6] 94 % of control | [8] 94 % of control

Reference: PubChem BioAssay AID256 (DTP/NCI, 2004)
